# According to BindingDB's records for doi:10.7270/Q2ZP44H3 (Vanderbilt Screening Center For Gpcrs, Ion Channels and …, 2009):
# Biological target: T1, Solute carrier family 12 member 5 (Homo sapiens, UniProt Q9H2X9)
# T1 sequence (Q9H2X9 whole entry): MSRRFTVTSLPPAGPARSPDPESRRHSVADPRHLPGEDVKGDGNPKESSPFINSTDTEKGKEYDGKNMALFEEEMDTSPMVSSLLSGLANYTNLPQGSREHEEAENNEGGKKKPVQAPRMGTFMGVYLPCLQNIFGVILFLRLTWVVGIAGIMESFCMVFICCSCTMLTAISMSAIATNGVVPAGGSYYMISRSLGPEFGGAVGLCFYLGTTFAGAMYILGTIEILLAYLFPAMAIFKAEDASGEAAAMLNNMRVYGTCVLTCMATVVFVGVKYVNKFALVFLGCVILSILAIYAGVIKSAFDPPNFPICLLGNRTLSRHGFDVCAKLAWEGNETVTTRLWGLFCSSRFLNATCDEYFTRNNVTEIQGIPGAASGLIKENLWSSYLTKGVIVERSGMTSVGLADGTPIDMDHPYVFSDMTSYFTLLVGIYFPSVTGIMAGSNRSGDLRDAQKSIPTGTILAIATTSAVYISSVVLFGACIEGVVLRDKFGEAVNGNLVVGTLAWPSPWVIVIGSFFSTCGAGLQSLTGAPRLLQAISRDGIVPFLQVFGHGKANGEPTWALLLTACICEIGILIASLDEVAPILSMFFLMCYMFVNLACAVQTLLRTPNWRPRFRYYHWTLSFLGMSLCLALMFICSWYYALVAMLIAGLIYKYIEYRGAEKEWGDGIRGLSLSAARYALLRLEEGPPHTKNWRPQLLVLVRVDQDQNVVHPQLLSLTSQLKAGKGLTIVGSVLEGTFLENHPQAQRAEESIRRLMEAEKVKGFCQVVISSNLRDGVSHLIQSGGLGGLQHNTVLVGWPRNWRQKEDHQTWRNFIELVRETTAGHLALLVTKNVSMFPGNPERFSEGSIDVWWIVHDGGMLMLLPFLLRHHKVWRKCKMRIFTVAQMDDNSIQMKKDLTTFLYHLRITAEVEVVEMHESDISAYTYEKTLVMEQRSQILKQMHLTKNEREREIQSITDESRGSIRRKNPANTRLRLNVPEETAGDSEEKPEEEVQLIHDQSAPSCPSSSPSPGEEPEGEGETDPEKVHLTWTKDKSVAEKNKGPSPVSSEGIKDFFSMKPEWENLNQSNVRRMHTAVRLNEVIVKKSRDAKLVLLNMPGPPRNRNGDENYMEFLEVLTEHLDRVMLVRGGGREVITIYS
# Test: KCC2 and NKCC1 inhibition by rubidium flux, cell-based, NKCC1 counter-screen (AID 1734)
compound,measurement,value
CCOc1ccc(-n2c(O)c3c(c2O)C(C=Cc2ccccc2)c2sc(=O)[nH]c2S3)cc1 (stereo unspecified),IC50,300 nM
